Data set [1] has as its system streptozotocin-induced diabetes mellitus (DM) rat model. Description: Drug efficacy in diabetes mellitus (DM) rat model, bladder function by cystometry. The data set is classed as in vivo, SD rats. To be noted: STZ DM rats, oral twice a day for 4 weeks. Here is the method: To examine the effect of the compound in a diabetes mellitus model, bladder function was analyzed by cystometry based on the method of Saitoh et al. (European Journal of Pharmacology 501 (2004) 143-149).
A streptozotocin (STZ) solution obtained by dissolving STZ in a citrate buffer solution (0.1 M citric acid, pH of 4.2) to a concentration of 32.5 mg/mL was prepared, and administered intraperitoneally (65 mg/kg) to SD rats to induce DM models. The same procedure was performed on sham rats except that a citrate buffer solution was used in place of the STZ solution.
On the day after the model production and 4 weeks later, a blood sample was taken from the tail vein with the rats awake to measure the blood glucose level. […] Individuals with a blood glucose level of 300 mg/dL or more on the day after the production of the model and 4 weeks later were determined to be established DM models and used in subsequent operations. […]
A pressure transducer (DX-360, Nihon Kohden Kogyo Co., Ltd.) and an infusion pump (TE-331S, Terumo Corporation) were connected via a three-way valve to the other end of the catheter inserted into the bladder. […] The volume of urination was automatically measured using an electronic balance (GX-200, A&D Company Limited) set directly under the holding cage, and recorded continuously on a computer using a PowerLab (sampling rate: 20/sec). […]

Data set [2] can be described thus: Pharmacokinetics after oral administration to rats. The data set is classed as in vivo, rat (Crl: CD (SD)). The conditions noted are these: male rat, 10 mg/kg. How it is done:
The required amount of compound (I) was weighed, and a drug suspension was prepared in 0.5% hydroxypropyl methylcellulose. The number of rats in each group was two, and each drug suspension was administered orally to each male rat (Crl: CD (SD)) using an oral sonde (the dose of the compound was 10 mg/kg). At each blood collection point (0.5, 1, 2, 4, 8, and 24 hours after administration), blood was collected from the jugular vein using a syringe and a needle (the anticoagulant was heparin sodium). The collected blood was centrifuged (13000 rpm, 2 min, 4° C.) to prepare plasma, followed by deproteinization. Thereafter, the concentration of the compound in the plasma was measured by LC/MS/MS (LCMS-8040 (Shimadzu Corporation) or API 4000 (AB Sciex), LC: 30-A and 20-A series (Shimadzu Corporation) or Waters Acquity (Waters Corporation)). A drug suspension was prepared and administered, and the concentration of the compound was measured, in the same manner as described above, except that compound A was used in place of compound (I).

Another data set has as its system ND3 neuronal cell line. Description: Nerve growth stimulation effect: neurite bearing assay and neurite length assay. Format: cell-based. To be noted: for Number of cells (relative cell number, DMSO well = 1) / Neurite length per cell (relative activity, maximum activity of compound (I) = 1) / Proportion of neurite-bearing cells (relative activity, maximum activity of compound (I) = 1): 6 hours. Here is the method: To evaluate the nerve growth stimulation effect, neurite bearing assay (proportion of neurite-bearing cells) and neurite length assay (neurite length) were analyzed with reference to the method of Topalli et al. (Brain Research 1030 (2004), pp. 116-124).
An ND3 neuronal cell line (European Collection of Authenticated Cell Cultures) was seeded in a DMEM medium containing 10% fetal bovine serum (0.6×10^4 cells/1 mL) in a 24-well plate. 24 hours later, the medium of seeded cells was removed, and a solution in which compound (I) that was sequentially diluted in dimethyl sulfoxide (DMSO) was adjusted in DMEM containing 0.1% bovine serum albumin so that the DMSO final concentration was 0.1%, was added to cells (evaluation performed in duplicate). After six hours from the addition, the proportion of neurite-bearing cells (the number of cells having a neurite longer than the diameter of the cell body/number of total cells), and the neurite length per cell were analyzed. Further, a test was performed in the same manner as described above, except that compound A was used in place of compound (I). The number of total cells, proportion of neurite-bearing cells, and neurite length per cell were analyzed using a MetaMorph Neurite Outgrowth Application Module (Molecular Devices Japan K. K.). The number of cells was defined as the relative cell number, taking the number of cells per well containing DMSO as 1 (Tables 4 and 5). […] The test was conducted multiple times, and the average value was shown. Data with a number of cells of 0.5 or more was used. Accordingly, if the number of cells was less than 0.5, the neurite length per cell and the proportion of neurite-bearing cells were defined as […]

Data set [3] can be described thus: Dynamic moisture adsorption/desorption test. The data set is classed as physicochemical. To be noted: at 95% relative humidity, 25° C. How it is done: The type I crystal, type II crystal, and type III crystal of compound (I) obtained in Examples 1 to 3 were subjected to a moisture adsorption/desorption test after storage for 4 weeks.
The moisture adsorption/desorption test was performed according to the following conditions.
About 10 mg of the sample was filled in a dedicated quartz holder, and the weight of the sample at each humidity was continuously measured and recorded under the following conditions. The handling of the apparatus, including data processing, was in accordance with the method and procedure as instructed for each apparatus.
Apparatus: VTI-SA+ (TA Instruments, Inc.)
Drying temperature: 25° C.
Temperature increase rate: 1° C./min
Measurement temperature: 25° C.
Relative humidity program: Increase by 5% RH from 5% RH to 95% RH and decrease by 5% RH from 95% RH to 5% RH

The nature of data set [4]: Solid stability test (HPLC purity after storage). The data set is classed as physicochemical. The conditions noted are these: for Change in purity / Change in purity (in words) / Increase in related substances / Purity after 4 weeks of storage under sealed conditions at 25° C.: 25° C./60% RH (closed system), 4 weeks; for Purity after 4 weeks of storage under sealed conditions at 25° C. / Purity of compound (I) before storage: HPLC. Here is the method: The solid stability of the type I crystal, type II crystal, and type III crystal of compound (I) obtained in Examples 1 to 3 was evaluated after storage for 4 weeks.
Storage condition: 25° C./60% RH (closed system)
Storage amount: about 25 mg
Storage container: glass bottle
Changes in the purity of compound (I) and in the amounts of related substances (the amounts of substances detected other than compound (I)) were analyzed by weighing about 1 mg of the sample, dissolving it in 2 mL of acetonitrile, and accurately measuring 5 μL of this liquid for analysis by HPLC according to the following method. The handling of the apparatus, including data processing, was in accordance with the method and procedure as instructed for each apparatus.
Column: YMC-Triart C8 (4.6×150 mm, 3 μm), produced by YMC Co., Ltd.
Column temperature: 40° C.
Sample concentration: 0.5 mg/mL
Mobile phase A: Liquid mixture of water/acetonitrile (1:1 v/v)
Mobile phase B: Acetonitrile

With `COCCCCCCCCCCCCCCCC1=C(C)C(=O)CCC1(C)C` [Compound (I), 3-(15-methoxypentadecyl)-2,4,4-trimethylcyclohex-2-en-1-one], the “Drug efficacy (residual urine volume, FIG. 10) as compared to compound A” value in data set [1] is recorded as “remarkable drug efficacy”. Moreover, the “Improvement in area under the curve (AUC) as compared to compound A” value in data set [2] was ≥ 1900 times. Also, in data set [2], the “Improvement in maximum blood concentration Cmax as compared to compound A” value was ≥ 1100 times. Also, the “Number of cells (relative cell number, DMSO well = 1)” value is listed as 1.06 in the data set on ND3 neuronal cell line (1 μM); 1.01 in the data set on ND3 neuronal cell line (3 μM); 0.94 with ND3 neuronal cell line (5 μM); 0.92 with ND3 neuronal cell line (10 μM); 0.96 with ND3 neuronal cell line (30 μM); 0.92 in the data set on ND3 neuronal cell line (100 μM). Also, in the data set with ND3 neuronal cell line (Table 5), the “Nerve growth stimulation effect compared to compound A” value is “excellent nerve growth stimulation effect”. Further, the “Number of relative cells” value with ND3 neuronal cell line (added in an amount of 1 to 100 μM) is ≥ 0.5.

With `CC1=C(CCCCCCCCCCCCCCCO)C(C)(C)CCC1=O` [Compound A, 3-(15-Hydroxypentadecyl)-2,4,4-trimethylcyclohex-2-en-1-one], the “Neurite length per cell (relative activity, maximum activity of compound (I) = 1)” value in the data set with ND3 neuronal cell line (1 μM) is reported as 0.26; with ND3 neuronal cell line (3 μM) it was 0.33; in the data set on ND3 neuronal cell line (5 μM), 0.39; in the data set on ND3 neuronal cell line (10 μM), 0.71. Besides, the “Number of cells (relative cell number, DMSO well = 1)” value with ND3 neuronal cell line (1 μM) is on record as 1.03; with ND3 neuronal cell line (3 μM), 0.92; with ND3 neuronal cell line (5 μM), 0.92; with ND3 neuronal cell line (10 μM) it was 1.0; in the data set with ND3 neuronal cell line (30 μM), 0.19. Moreover, the “Proportion of neurite-bearing cells (relative activity, maximum activity of compound (I) = 1)” value amounted to 0.24 with ND3 neuronal cell line (1 μM), 0.34 in the data set on ND3 neuronal cell line (3 μM), 0.41 in the data set on ND3 neuronal cell line (5 μM) and 0.70 with ND3 neuronal cell line (10 μM).

`COCCCCCCCCCCCCCCCC1=C(C)C(=O)CCC1(C)C` [Type I crystal, 3-(15-methoxypentadecyl)-2,4,4-trimethylcyclohex-2-en-1-one]: in data set [3], the Moisture absorption result is given as “almost no moisture absorption”. In data set [4], the Change in purity result is recorded as “+0.01%”, the “Change in purity (in words)” value is recorded as “almost no change in purity”, the “Increase in related substances” value is given as “almost no increase in related substances” and the “Purity after 4 weeks of storage under sealed conditions at 25° C.” value (“Purity after 4 weeks of storage” below) was 99.71%. The “Purity of compound (I) before storage” value in data set [4] came out at 99.70%.

Turning to `COCCCCCCCCCCCCCCCC1=C(C)C(=O)CCC1(C)C` [Type II crystal, 3-(15-methoxypentadecyl)-2,4,4-trimethylcyclohex-2-en-1-one], the Moisture absorption entry in data set [3] is “almost no moisture absorption”. In data set [4], the Change in purity is −0.01%, the “Change in purity (in words)” value is “almost no change in purity”, the “Increase in related substances” value is reported as “almost no increase in related substances” and the “Purity after 4 weeks of storage” value is 99.72%. Besides, the “Purity of compound (I) before storage” value in data set [4] worked out at 99.73%.

As for `COCCCCCCCCCCCCCCCC1=C(C)C(=O)CCC1(C)C` [Type III crystal, 3-(15-methoxypentadecyl)-2,4,4-trimethylcyclohex-2-en-1-one], the Moisture absorption entry in data set [3] is on record as “almost no moisture absorption”. For the same compound, in data set [4], the “Change in purity (in words)” value is listed as “almost no change in purity”, the “Increase in related substances” value is listed as “almost no increase in related substances”, the “Purity after 4 weeks of storage” value amounted to 99.77% and the “Purity of compound (I) before storage” value came to 99.77%.

The record behind these values is patent US20250178998A1, “CRYSTAL FORM OF CYCLOHEXENONE COMPOUND” (TAIHO PHARMACEUTICAL CO., LTD., priority 2022, published 2025).
